Measurements: US8680233B2, “Heteropeptides useful for reducing nonspecific adsorption” (Valorisation-Recherche, Limited Partnership, priority 2009, dated 2014)
Numbered stars: 1 amine (or outer) side, 2 acyl side, 3 side chain; on linkers, the order of the positions; unused ones are H or OH. Square brackets hold non-standard residues; d marks the D form. Peptide text beside a SMILES is read from it. Haic = O=C1[C@@H](N[*:1])CCc2cccc3c2N1[C@H](C(=O)[*:2])C3; dTrp(2-Me) = Cc1[nH]c2ccccc2c1C[C@@H](N)C(=O)O

Legend:
[1] = molecular target: recombinant soluble His-tagged CD36 (Homo sapiens, UniProt P16671); test: SPR screening of peptide ligands on a CD36 functionalized sensor; format: binding; conditions: increasing ligand concentrations
Sequence of recombinant soluble His-tagged CD36 (P16671 30-439 limits assumed): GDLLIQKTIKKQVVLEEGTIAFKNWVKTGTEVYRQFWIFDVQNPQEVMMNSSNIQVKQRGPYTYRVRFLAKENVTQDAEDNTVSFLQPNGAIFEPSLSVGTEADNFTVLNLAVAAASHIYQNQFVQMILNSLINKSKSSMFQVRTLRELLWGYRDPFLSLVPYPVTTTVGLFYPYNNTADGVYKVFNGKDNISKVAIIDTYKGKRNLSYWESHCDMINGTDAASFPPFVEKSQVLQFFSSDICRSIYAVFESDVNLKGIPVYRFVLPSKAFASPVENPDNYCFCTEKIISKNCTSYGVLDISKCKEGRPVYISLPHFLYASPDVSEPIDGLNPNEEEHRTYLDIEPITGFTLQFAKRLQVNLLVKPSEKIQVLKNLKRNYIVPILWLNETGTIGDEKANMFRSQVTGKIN
Procedure: (§1) The SPR sensors for screening small peptidic ligand binding to a recombinant soluble His-tagged CD36 functionalized surfaces were prepared as described above. Five ligands were investigated: EP80317, CP-2B(i), CP-3(iv), CP-2A(v) and DBG-178(27) with concentrations ranging from 30 μM to 100 nM except for EP80317. The latter was used for optimizing the system with solutions ranging from 1 mM to 100 nM. EP80317 (HAIC-2MeDTrp-DLys-Trp-D-Phe-Lys-NH2) is a positive control of known activity, CP-2B(i) (His-DTrp-AzaLeu-Trp-DPhe-Ala-NH2) is a negative control, and CP-3(iv) (Ala-DTrp-Ala-AzaPhe-DPhe-Lys-NH2), CP-2A(v) (His-DTrp-AzaGly-Trp-DPhe-Lys-NH2) and DBG-178(27) (His-DTrp-Ala-azaTyr-DPhe-Lys-NH2) are novel CD36 ligands (see PCT publication No. WO 08/154,738). Another negative control was accomplished by exposing the His-tagged hDHFR functionalized surface to the same concentration of CD36 peptidic ligand. Two different approaches were used to remove the His-tagged CD36-Cu complex from the SPR sensors: concentrated histidine solution or saturated EDTA solution.
This is the case of the CD36-ligand system investigated herein, where the ligands are small peptides of about 800 to 1000 g/mol. Indeed, according to the aforementioned principle, the binding of the small peptides to the CD36 receptor should be close to the limit of detection, thus providing unreliable affinity measurements. […] This could be a consequence of a large conformational change of the CD36 receptor upon binding of specific ligands, thus providing the amplification sufficient for SPR signal detection.
The SPR setup was used for investigating the structure-activity relationships of various CD36 peptidic ligands. […] The measured KD's were compared to the EC50 values obtained in the activated src-kinase assay following CD36 receptor activation by the tested peptides. […] For the src-kinase cellular assay, the response sensitivity (EC50) for the tested peptides (in decreasing order) was as follows: EP80317>CP-2A(v)>CP-3(iv)>DBG-178(27)>CP-2B(i). With SPR, the binding affinity to CD36, in decreasing order, was: DBG-178(27)>CP-2A(v)>EP80317>CP-3(iv)>CP-2B(i). […] For CD36-peptidic ligands, a correlation appears between the affinity binding of the small peptides for CD36 as determined by SPR and their efficiency to produce a cellular response in the src kinase assay. Thus, SPR appears as a selective and sensitive method to screen for CD36 ligands.

His-tagged hDHFR = molecular target: T1, His-tagged hDHFR (Homo sapiens, UniProt P00374); test: SPR blank assay on a hDHFR-His-Tag functionalized sensor; format: binding; conditions: same peptide concentrations
T1 construct: made in house
T1 sequence (P00374 1-187): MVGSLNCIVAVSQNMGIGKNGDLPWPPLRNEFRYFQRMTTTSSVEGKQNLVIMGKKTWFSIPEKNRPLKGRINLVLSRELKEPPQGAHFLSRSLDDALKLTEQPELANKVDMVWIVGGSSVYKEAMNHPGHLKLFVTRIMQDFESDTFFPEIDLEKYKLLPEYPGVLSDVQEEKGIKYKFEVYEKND
Procedure: as §1
This is the case of the CD36-ligand system investigated herein, where the ligands are small peptides of about 800 to 1000 g/mol. Indeed, according to the aforementioned principle, the binding of the small peptides to the CD36 receptor should be close to the limit of detection, thus providing unreliable affinity measurements. […]

## Cc1[nH]c2ccccc2c1C[C@@H](NC(=O)[C@@H]1Cc2cccc3c2N1C(=O)[C@@H](N)CC3)C(=O)N[C@H](CCCCN)C(=O)N[C@@H](Cc1c[nH]c2ccccc12)C(=O)N[C@H](Cc1ccccc1)C(=O)N[C@@H](CCCCN)C(N)=O [EP80317, HAIC-2MeDTrp-DLys-Trp-D-Phe-Lys-NH2, reference compound] (Haic-[dTrp(2-Me)][dK]W[dF]K-NH2; N-terminus assumed)
[1]
  Change of SPR signal on CD36-His-tag-functionalized surface: large shift in the signal
His-tagged hDHFR
  Change of SPR signal on hDHFR-His-Tag functionalized sensor: no significant change of signal
